The values below come from ChEMBL document CHEMBL1201862, “PubChem BioAssay data set” (2004).

Some test systems named below: U-251; A498; M19-MEL; UACC-62; IGROV-1; SK-MEL-2; SNB-19; SK-MEL-28; SW-620; EKVX; OVCAR-3; COLO 205; SF-268; RXF 393; HCT-15; UACC-257; DU-145; Hs-578T; MDA-MB-231; PC-3.
Holding throughout (assay): NCI anticancer screen, dose series, 48 h

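In this assay, cells in 96-well plates receive the compound at five concentrations for 48 hours. Endpoints are linearly interpolated between the surrounding concentrations. Abbreviation: GI50, concentration required for 50% inhibition of growth.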 Active and inactive are the calls of the source. Cut-off read from the data, not from the text of the source: active = GI50 up to about 1.1 µM and inactive = higher.

Turning to `CSc1n/c(=N\c2ccccc2)sn1-c1ccccc1`, the GI50 in the assay with U-251 was 14.9 µM (inactive); with A498, 18.7 µM (inactive); in the assay with M19-MEL, 5.58 µM (inactive); in the assay on UACC-62, 4.76 µM (inactive); in the assay with IGROV-1 it was 4.65 µM (inactive); with SK-MEL-2 it was 17.1 µM (inactive). Moreover, the GI50 in the assay on SNB-19 is 17.1 µM (inactive); with SK-MEL-28 it was 14.1 µM (inactive); in the assay on SW-620, 12.3 µM (inactive); in the assay with EKVX, 27.5 µM (inactive); in the assay on OVCAR-3 it was 18 µM (inactive); with COLO 205, 7.73 µM (inactive). For the same molecule, the GI50 in the assay on SF-268 was 19.6 µM (inactive); in the assay on RXF 393 it was 16.8 µM (inactive); in the assay with HCT-15, 13.8 µM; with UACC-257, 20.3 µM (inactive).
`COC(=O)c1ccccc1NC(=O)C(=O)CC(=O)c1ccccc1NC1=CC(=O)C(=O)c2ccccc21`: the GI50 in the assay on U-251 was 11.1 µM (inactive); in the assay on DU-145, 23.2 µM (inactive); with A498, > 56.2 µM (inactive); in the assay with Hs-578T, 7.45 µM (inactive); with M19-MEL it was 2.02 µM (inactive); in the assay with UACC-62, 8.87 µM (inactive). In addition, the GI50 in the assay with IGROV-1 is 13.2 µM (inactive); in the assay with SK-MEL-2, 12.5 µM (inactive); with SNB-19 it was 20.2 µM (inactive); in the assay with SK-MEL-28, 13.1 µM (inactive); in the assay on SW-620, 5.4 µM (inactive); in the assay on MDA-MB-231, 3.4 µM (inactive). The GI50 was 44.8 µM (inactive) in the assay with EKVX; 1.78 µM (inactive) in the assay with OVCAR-3; 31.9 µM (inactive) in the assay on COLO 205; 10.9 µM (inactive) in the assay on PC-3; 5.96 µM (inactive) in the assay with SF-268; 15.6 µM (inactive) in the assay with RXF 393. Also, the GI50 in the assay on HCT-15 was 5.65 µM; in the assay with UACC-257 it was 6.05 µM (inactive).
Take `CCOC(=O)/C(O)=C/c1cc(OC)cc(=O)o1`: the GI50 with U-251, in the assay with A498, in the assay with M19-MEL, in the assay with UACC-62, with IGROV-1 and in the assay with SK-MEL-2 was > 100 µM (inactive) in each case. The GI50 with SNB-19, with SK-MEL-28, with SW-620, in the assay with EKVX, in the assay on OVCAR-3 and with COLO 205 was > 100 µM (inactive) in each case. The GI50 was > 100 µM (inactive) in the assay on SF-268, > 100 µM (inactive) with RXF 393, above 100 µM with HCT-15 and > 100 µM (inactive) in the assay on UACC-257.
Turning to `c1ccc2c(NCCCCCCCCNc3c4ccccc4nc4ccccc34)c3ccccc3nc2c1`, the GI50 with U-251 was 0.184 µM (active); in the assay on DU-145, 0.0838 µM (active); in the assay with A498, 1.26 µM (inactive); in the assay with Hs-578T it was 0.478 µM (active); in the assay on M19-MEL, 1.08 µM (active); in the assay with UACC-62, 0.684 µM (active). Moreover, the GI50 in the assay with IGROV-1 is 0.0927 µM (active); in the assay with SK-MEL-2, 0.733 µM (active); in the assay on SNB-19, 0.332 µM (active); in the assay with SW-620 it was 0.0506 µM (active); with MDA-MB-231, 0.0482 µM (active); with EKVX, 0.323 µM (active). Moreover, the GI50 in the assay on OVCAR-3 was 0.37 µM (active); in the assay with COLO 205, 0.113 µM (active); with PC-3, 0.0548 µM (active); in the assay with SF-268, 0.63 µM (active); with RXF 393 it was 0.0782 µM (active); with HCT-15 it was 0.528 µM. For the same molecule, the GI50 in the assay with UACC-257 was 1.37 µM (inactive).
Consider `Cc1ccc([N+](=O)[O-])cc1NC(=O)c1cccc([N+](=O)[O-])c1O`, for which the GI50 in the assay on U-251 is 15.9 µM (inactive); in the assay on A498, 11.3 µM (inactive); in the assay on M19-MEL, 15.5 µM (inactive); with UACC-62, 3.85 µM (inactive); with IGROV-1, 11.7 µM (inactive); with SK-MEL-2, 7.98 µM (inactive). Further, the GI50 with SNB-19 is 14.1 µM (inactive); with SK-MEL-28, 11.5 µM (inactive); in the assay with SW-620 it was 34.2 µM (inactive); in the assay with EKVX it was 21.2 µM (inactive); in the assay on OVCAR-3 it was 7.24 µM (inactive); with COLO 205, 17.1 µM (inactive). Also, the GI50 is 14.6 µM (inactive) in the assay with SF-268, 3.99 µM (inactive) with RXF 393, 25 µM in the assay on HCT-15 and 9.59 µM (inactive) with UACC-257.
Turning to `CCOCC(=O)N[C@H]1CCc2cc(OC)c(OC)c(OC)c2-c2ccc(OC)c(=O)cc21`, the GI50 in the assay on U-251 was 0.0173 µM (active); with DU-145, 0.0213 µM (active); in the assay with A498, 0.0229 µM (active); in the assay with Hs-578T, 0.0203 µM (active); in the assay on M19-MEL, < 0.0202 µM (active); in the assay with UACC-62, 0.0153 µM (active). Besides, the GI50 was 0.0241 µM (active) in the assay with IGROV-1; 0.0174 µM (active) in the assay on SK-MEL-2; 0.164 µM (active) in the assay on SNB-19; 2.23 µM (inactive) with SK-MEL-28; 0.0169 µM (active) in the assay on SW-620; < 0.0145 µM (active) in the assay on MDA-MB-231. Also, the GI50 in the assay on EKVX was > 15.8 µM (inactive); with OVCAR-3 it was 0.0148 µM (active); with COLO 205, 0.0137 µM (active); with PC-3, < 0.0154 µM (active); in the assay with SF-268, 0.0233 µM (active); with RXF 393, 0.0811 µM (active). Also, the values for the GI50 in the assay on HCT-15 and in the assay on UACC-257 were 0.0865 µM and 0.0377 µM (active), respectively.
For the molecule `CC(=O)NC(CCCN)C(=O)NCc1ccccc1` (centres undefined), the GI50 in the assay on U-251, with A498, in the assay with M19-MEL, in the assay with UACC-62, in the assay on IGROV-1 and in the assay with SK-MEL-2 was > 100 µM (inactive) in each case. Besides, the GI50 with SNB-19, with SK-MEL-28, in the assay on SW-620, with EKVX, with OVCAR-3 and in the assay with COLO 205 was > 100 µM (inactive) throughout. Besides, the GI50 in the assay with SF-268 was > 100 µM (inactive); with RXF 393 it was > 100 µM (inactive); in the assay on HCT-15, above 100 µM; in the assay on UACC-257, > 100 µM (inactive).
Take `O=C(Nc1c(-c2nc3ccccc3[nH]2)sc(=S)n1-c1ccccc1)c1ccccc1`: the GI50 in the assay with U-251, in the assay with A498, in the assay with M19-MEL, in the assay with UACC-62, with IGROV-1 and in the assay with SK-MEL-2 was > 100 µM (inactive) each time. Besides, the GI50 in the assay on SNB-19 is 82 µM (inactive); with SK-MEL-28, > 100 µM (inactive); in the assay on SW-620, > 100 µM (inactive); in the assay with EKVX, > 100 µM (inactive); in the assay with OVCAR-3 it was 96.8 µM (inactive); in the assay with COLO 205, > 100 µM (inactive). For the same molecule, the GI50 was > 100 µM (inactive) in the assay with SF-268, > 100 µM (inactive) in the assay on RXF 393, above 100 µM in the assay with HCT-15 and > 100 µM (inactive) in the assay on UACC-257.
